In US20090143285A1, “TARGET PROTEIN AND TARGET GENE FOR DRUG DISCOVERY AND SCREENING METHOD” (REVERSE PROTEOMICS RESEARCH INSTITUTE CO., LTD., priority 2005, published 2009):
Changes are numbered by the printed parent chain. “Also recorded” adds a separate entry of the source.

Columns and labels:
FLJ11211-derived protein = molecular target: T1, FLJ11211-derived protein (Homo sapiens, UniProt Q9Y222, I712M); experiment: SEC/MS interaction analysis, FLJ11211-derived protein (DMTF1; DMP1); assay type: binding; settings: spin column method; mixture with protein vs buffer solution alone; data not shown
T1 construct: corresponds to a partial peptide of human DMP1 on the C-terminal side thereof (303 amino acid residues); His-tag (N); made in house; host or cells: Escherichia coli BL21star(DE3)pLysS
T1 sequence (Q9Y222 458-760 I712M): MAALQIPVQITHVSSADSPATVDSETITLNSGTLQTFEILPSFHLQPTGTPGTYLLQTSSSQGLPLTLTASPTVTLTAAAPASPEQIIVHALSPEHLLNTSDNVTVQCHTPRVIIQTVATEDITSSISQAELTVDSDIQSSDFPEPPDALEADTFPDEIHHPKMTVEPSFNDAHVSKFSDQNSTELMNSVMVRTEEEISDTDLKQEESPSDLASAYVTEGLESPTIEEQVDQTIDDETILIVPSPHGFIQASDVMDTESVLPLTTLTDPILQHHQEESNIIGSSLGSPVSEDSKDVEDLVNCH
Text: (§1) To analyze the interactions between commonly used drugs and proteins expressed from human full-length cDNA clones while keeping both the proteins and the compounds in non-modified, non-immobilized state, size exclusion chromatography (SEC) and mass analysis were used in combination. The specific procedures are shown below.
(§2) The compound-protein mixture prepared in step 1 was subjected to chromatography using an SEC column, the compound and the protein were separated by SEC, and the compound that interacted with the bound compound or protein contained in the protein fraction was analyzed using a mass analyzer.
(§3) Protein concentrations were measured using BCA Protein Assay (PIERCE), in consideration of the purity calculated by SDS-PAGE.
Mass analysis was performed using LCQ DECA XP (Thermoelectron) or Q-TOF micro (Micromass), equipped with an ESI probe. […]
In the 384-well spin column method, Unifilter 100 (Whatman), packed with 10 μL (dry volume) of Bio-Gel P6 (BIO-RAD) and swollen with milliQ water, was used as the SEC column. […] 2-μL of mass analysis samples were injected using an autosampler at 2-minute intervals; the mass spectral intensity of the compound was measured to retrieve the spectral intensity of the pharmaceutical compound contained in the SEC spin column filtrate (protein fraction eluted from SEC).

FLJ41991-derived protein = molecular target: T2, FLJ41991-derived protein (Homo sapiens, UniProt P57764, E293G); experiment: SEC/MS interaction analysis, FLJ41991-derived protein (GSDMDC1); assay type: binding
T2 construct: His-tag (N); made in house; host or cells: Escherichia coli BL21star(DE3)pLysS (pDEST17)
T2 sequence (P57764 265-484 E293G): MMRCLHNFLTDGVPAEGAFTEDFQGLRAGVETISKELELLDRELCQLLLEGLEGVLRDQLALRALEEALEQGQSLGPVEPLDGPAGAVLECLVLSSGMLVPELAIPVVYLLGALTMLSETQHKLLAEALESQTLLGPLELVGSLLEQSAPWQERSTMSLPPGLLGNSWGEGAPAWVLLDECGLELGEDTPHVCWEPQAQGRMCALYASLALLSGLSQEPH
Procedure, shortened: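 Compound–protein mixtures separated by SEC (micro-LC column with 10 mM ammonium acetate mobile phase, or Bio-Gel P6 spin column) and analysed by ESI mass spectrometry. Interaction inferred from a protein-dependent shift in the compound's mass chromatogram, or from compound signal intensity in the eluted protein fraction.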

FLJ38897-derived protein = molecular target: T3, FLJ38897-derived protein (Homo sapiens, UniProt P57764); experiment: SEC/MS interaction analysis, FLJ38897-derived protein (GSDMDC1); assay type: binding; settings: spin column method; mixture with protein vs buffer solution alone; data not shown
T3 construct: His-tag (N); made in house; host or cells: Escherichia coli BL21star(DE3)pLysS
T3 sequence (P57764 265-484): T2 sequence (P57764 265-484 E293G) with G29E
Text: as §1, §2, §3
Mass analysis was performed using LCQ DECA XP (Thermoelectron) or Q-TOF micro (Micromass), equipped with an ESI probe. The LC pump used was Agilent 1100 (Yokogawa Analytical Systems), and the autosampler used was HTC-PAL (CTC Analytics) equipped with a cooling stacker. The SEC column used was a micro-LC column or a 384-well spin column. […]
In the 384-well spin column method, Unifilter 100 (Whatman), packed with 10 μL (dry volume) of Bio-Gel P6 (BIO-RAD) and swollen with milliQ water, was used as the SEC column. […] The SEC spin column was mounted on an acetonitrile-aliquoted 384-well U-bottom plate and centrifuged; the SEC spin column filtrate, which is a protein fraction, was recovered in 50% acetonitrile. The protein precipitate produced by the acetonitrile was removed via centrifugation and filtration for deproteinization; the resulting filtrate was concentrated by centrifugal concentration and re-dissolved in 10 μL of 50% methanol to obtain a mass analysis sample. The mobile phase supplied to the mass analyzer was 0.1% formic acid/50% methanol solution in the positive ion mode, and 0.1% ammonia/50% methanol solution in the negative ion mode; these mobile phases were used at a flow rate of 40 μL/min. 2-μL of mass analysis samples were injected using an autosampler at 2-minute intervals; the mass spectral intensity of the compound was measured to retrieve the spectral intensity of the pharmaceutical compound contained in the SEC spin column filtrate (protein fraction eluted from SEC).

[1] = tested on: FLJXXXXX-derived proteins; experiment: SEC/MS spin column interaction analysis of FLJXXXXX-derived proteins and various compounds (Tables 30-1 to 30-4); assay type: binding, human; settings: SEC spin column filtrate, spectral intensity increased with doses of compound and protein
FLJ22317-derived protein = molecular target: T4, FLJ22317-derived protein (Homo sapiens, UniProt Q9NWV8); experiment: SEC/MS interaction analysis, FLJ22317-derived protein (HSPC142 protein); assay type: binding; settings: TSKgel super SW2000 micro-LC column (1.0 mm ID×30 mm); presence vs absence of protein; data not shown
T4 construct: His-tag (N); made in house; host or cells: Escherichia coli BL21star(DE3)pLysS
T4 sequence (Q9NWV8 whole entry): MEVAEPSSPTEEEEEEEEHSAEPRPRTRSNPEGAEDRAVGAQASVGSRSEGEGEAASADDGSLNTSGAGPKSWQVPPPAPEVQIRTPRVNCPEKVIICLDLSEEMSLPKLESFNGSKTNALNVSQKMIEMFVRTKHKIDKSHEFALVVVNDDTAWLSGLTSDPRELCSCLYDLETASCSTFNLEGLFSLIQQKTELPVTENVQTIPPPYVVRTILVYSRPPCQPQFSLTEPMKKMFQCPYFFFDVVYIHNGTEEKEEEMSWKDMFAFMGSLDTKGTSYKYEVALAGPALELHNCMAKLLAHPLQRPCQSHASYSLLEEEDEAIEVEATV
Text: The specific procedures are shown below.

Molecule	interaction judged from mass spectrum peak intensity of the compound in the spin column filtrate (FLJ11211-derived protein)	spectrum intensity of the compound in the SEC spin column filtrate (FLJ41991-derived protein; compound 12.5 μM, protein 0 μM)	spectrum intensity of the compound in the SEC spin column filtrate (FLJ41991-derived protein; compound 12.5 μM, protein 5 μM)	spectrum intensity of the compound in the SEC spin column filtrate (FLJ41991-derived protein; compound 12.5 μM, protein 10 μM)	spectrum intensity of the compound in the SEC spin column filtrate (FLJ41991-derived protein; compound 12.5 μM, protein 25 μM)	spectrum intensity of the compound in the SEC spin column filtrate (FLJ41991-derived protein; compound 25 μM, protein 0 μM)	spectrum intensity of the compound in the SEC spin column filtrate (FLJ41991-derived protein; compound 25 μM, protein 5 μM)	spectrum intensity of the compound in the SEC spin column filtrate (FLJ41991-derived protein; compound 25 μM, protein 10 μM)	spectrum intensity of the compound in the SEC spin column filtrate (FLJ41991-derived protein; compound 25 μM, protein 25 μM)	spectrum intensity of the compound in the SEC spin column filtrate (FLJ41991-derived protein; compound 62.5 μM, protein 0 μM)	spectrum intensity of the compound in the SEC spin column filtrate (FLJ41991-derived protein; compound 62.5 μM, protein 5 μM)	spectrum intensity of the compound in the SEC spin column filtrate (FLJ41991-derived protein; compound 62.5 μM, protein 10 μM)	spectrum intensity of the compound in the SEC spin column filtrate (FLJ41991-derived protein; compound 62.5 μM, protein 25 μM)	interaction judged from spectrum intensity of the compound in the SEC spin column filtrate (protein fraction eluted from SEC) (FLJ41991-derived protein; spin column method, doses of both compound and protein varied)	interaction judged from mass spectrum peak intensity of the compound in the spin column filtrate (FLJ38897-derived protein)	FLJ No of the derived protein with which the compound was judged to exhibit a concentration-dependent interaction [1]	interaction judged from mass chromatogram of the compound (elution from SEC micro-LC column) (FLJ22317-derived protein)
CC(C)(C)c1ccc(C(O)CCCN2CCC(C(O)(c3ccccc3)c3ccccc3)CC2)cc1 (stereo not drawn) [terfenadine]	there was an interaction	26814	200843	376865	1734729	87636	311313	949465	4190413	231173	1759965	5619658	9678283	concentration-dependent interaction	an interaction was observed	FLJ11211; also recorded: FLJ38897; also recorded: FLJ41991	–
solanine α	–	–	–	–	–	–	–	–	–	–	–	–	–	–	–	FLJ22317; also recorded: FLJ39553	there was an interaction
